# From US10300071B2, “Compositions and methods for inhibition of mycobacteria” (priority 2014, dated 2019)
# Where two headings read alike, the source gives them in different places.
# What was measured:
# Mtb AccD6 = Mtb AccD6 (Mycobacterium tuberculosis, UniProt P9WQH5); experiment: biochemical; format: biochemical
# Mtb strain mc^2-7000 = experiment: microbe, parasite or virus in culture; format: cell-based, Mycobacterium tuberculosis
# [1] = Pharmacokinetic studies in mice, plasma concentration after gavage (LC/MS); conditions: for peak plasma concentration, 30 minutes after gavage / peak plasma concentration, 90 minutes after gavage: 100 mg/kg gavage, PEG or canola oil; for Plasma conc. 24 Hrs. after 1st dose / Plasma conc. 24 Hrs. after last dose: oral, 1 dose/day x 4 days, NZ-331 200 mg/kg, NZ-332 and NZ-369 100 mg/kg; for peak plasma concentration (FIG. 6A): two doses 200 mg/kg 8 h apart, approx. 12 hours after first dose, 4 hours after second
# plasma protein = experiment: Plasma protein binding assay
# Protocol: Protein plasma binding assays were conducted in female mice for each of the arylphenoxypropionate derivatives quizalofop-p, quizalofop-p-ethyl, fenoxaprop-p, and fenoxaprop-p-ethyl.
# [2] = cited from earlier work
# [3] = 1-year feeding study, dogs; cited from earlier work
# [4] = mammals, within three days; cited from earlier work
# [5] = CPRC; cited from earlier work
# [6] = Additional pharmacokinetic studies in rats
# [7] = rat, in vivo
# in vivo = conditions: rat
# [8] = 300 μM malonyl-CoA, inhibitor 10 μM to 2000 μM, read-out: IC50
# [9] = Mycobacterium tuberculosis, 144 h, 6 days incubation at 37° C., resazurin, read on the 7th day, read-out: MIC
# [10] = 6 days incubation at 37° C., resazurin, read on the 7th day
# Sequence of Mtb AccD6 (P9WQH5 whole entry, looked up): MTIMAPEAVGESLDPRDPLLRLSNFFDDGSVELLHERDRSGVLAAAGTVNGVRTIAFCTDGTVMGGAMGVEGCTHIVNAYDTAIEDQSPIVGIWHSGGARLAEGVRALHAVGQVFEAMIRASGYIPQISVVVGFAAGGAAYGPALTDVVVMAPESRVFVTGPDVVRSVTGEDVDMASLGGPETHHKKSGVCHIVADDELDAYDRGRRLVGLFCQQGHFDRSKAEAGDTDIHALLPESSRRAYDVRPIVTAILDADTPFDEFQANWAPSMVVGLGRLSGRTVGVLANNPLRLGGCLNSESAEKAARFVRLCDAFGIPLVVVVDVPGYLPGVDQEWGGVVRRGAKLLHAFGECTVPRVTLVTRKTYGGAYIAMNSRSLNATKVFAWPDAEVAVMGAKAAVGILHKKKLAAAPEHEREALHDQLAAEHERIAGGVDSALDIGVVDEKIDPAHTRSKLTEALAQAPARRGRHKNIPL
Structure (SMILES),IC50 (Mtb AccD6; [8]) [nM],MIC (Mtb strain mc^2-7000; [9]) [µM],"concentrations at which not toxic, s. cerevisiae cytotoxicity (S. cerevisiae) [µM]","concentrations at which not toxic, human fibroblast cytotoxicity (human fibroblast) [µM]",further results
"CC(C)NC(=O)Nc1ccc(Oc2nc3ccc(F)cc3s2)cc1 [NZ-332, 1-{4-[(6-fluoro-1,3-benzothiazol-2-yl)oxy]phenyl}-3-(propan-2-yl)urea]",650,0.8,≥ 100,≥ 100,"peak plasma concentration, 30 minutes after gavage [1]: approximately 9 μL/mg; peak plasma concentration, 90 minutes after gavage [1]: 13; Plasma conc. 24 Hrs. after 1st dose ([1]; canola oil): 2.2 (±0.6) μg/ml; Plasma conc. 24 Hrs. after last dose ([1]; canola oil): 1.8 (±0.2) μg/ml; peak plasma concentration (FIG. 6A) ([1]; canola oil, gavage): approximately 34 μL/mg"
"CONC(=O)C(C)c1ccc(Oc2nc3ccc(Cl)cc3s2)cc1 (racemic) [NZ-313, 2-{4-[(6-chloro-1,3-benzothiazol-2-yl)oxy]phenyl}-N-methoxypropanamide]",320,0.38,≥ 100,≥ 100,"peak plasma concentration (FIG. 8) ([1]; single dose 200 mg/kg, PEG, gavage, 90 minutes after gavage): 1; peak plasma concentration (FIG. 7) ([1]; two doses 100 mg/kg 4 hours apart, canola oil, gavage, 30 minutes after gavage): approximately 0.69 μL/mg"
"C[C@@H](Oc1ccc(Oc2cnc3cc(Cl)ccc3n2)cc1)C(=O)O [quizalofop-p, (2R)-2-{4-[(6-chloroquinoxalin-2-yl)oxy]phenoxy}propanoic acid, reference compound]",,,,,"IC50 (Mtb AccD6): 800 nM; Percentage of Compound Bound (plasma protein; mouse plasma): 96.8%; Percentage of Compound Recovered (plasma protein; mouse plasma): 90%; peak plasma concentration of quizalofop-p ([1]; quizalofop-p-ethyl or quizalofop-p in carboxymethylcellulose or canola oil, gavage 50 mg/kg, 8 hours after gavage): 35"
"CC(Oc1ccc(Oc2nc3ccc(Cl)cc3o2)cc1)C(=O)O (stereo not shown) [fenoxaprop-p, 2-{4-[(6-chloro-1,3-benzoxazol-2-yl)oxy]phenoxy}propanoic acid, reference compound]",1500,25,,≥ 100,"Percentage of Compound Bound (plasma protein; female, mouse): 98.58%; Percentage of Compound Recovered (plasma protein; female, mouse): 76%"
"CCOC(=O)[C@@H](C)Oc1ccc(Oc2cnc3cc(Cl)ccc3n2)cc1 [quizalofop-p-ethyl, ethyl (2R)-2-{4-[(6-chloroquinoxalin-2-yl)oxy]phenoxy}propanoate]",2300,0.68 to 1.56,,,"stability under assay conditions (plasma esterase activity) (plasma protein; plasma): not stable under assay conditions; LD50, rabbits [2]: greater than 2,000 mg/kg; doses causing zero observed effects [3]: up to 10 mg/kg/day; share of a single oral dose eliminated in urine [4]: more than 90%; carcinogen classification [5]: Group D carcinogen; time to convert from ester to acid [6]: ~3 h; time of peak (maximum) blood concentration ([6]; oral): six to nine; oral absorption ([6]; oral route): absorbed to a considerable extent by the oral route; concentration of quizalofop-p-ethyl detected at all collection timepoints ([1]; gavage 50 mg/kg): much lower than the concentration of quizalofop-p detected"
"CCOC(=O)[C@@H](C)Oc1ccc(Oc2nc3ccc(Cl)cc3o2)cc1 [fenoxaprop-p-ethyl, ethyl (2R)-2-{4-[(6-chloro-1,3-benzoxazol-2-yl)oxy]phenoxy}propanoate]",,,,≥ 100,"MIC (Mtb strain mc^2-7000; Mycobacterium tuberculosis, 144 h): 1.56 µM; stability under assay conditions (plasma esterase activity) (plasma protein): not stable under assay conditions; oral absorption [7]: absorbed rapidly; minimum rate of absorption (urinary excretion including cage washes and residues in tissues/organs) ([7]; po): at least 40 % of the administered dose; time at which test substance was already found in the blood ([7]; po): 15 min; time of peak (maximum) blood concentration ([7]; po): 6 to 8 h; half-life (in vivo; initial phase): 9 to 11 h; half-life (in vivo; terminal phase): 68 to 75 h"
"CNC(=O)C(C)c1ccc(Oc2nc3ccc(Cl)cc3s2)cc1 (stereo not shown) [NZ-369, 2-{4-[(6-chloro-1,3-benzothiazol-2-yl)oxy]phenyl}-N-methylpropanamide]",870,0.73 to 0.98,≥ 100,≥ 100,"Plasma conc. 24 Hrs. after 1st dose ([1]; canola oil): 0.74 (±0.09) μg/ml; Plasma conc. 24 Hrs. after last dose ([1]; canola oil): 0.57 (±0.07) μg/ml; peak plasma concentration (FIG. 10) ([1]; single dose 200 mg/kg, canola oil, gavage, 2 hours after gavage): 27.4; peak plasma concentration (FIG. 11), 2 hours ([1]; two doses 200 mg/kg 8 hours apart, canola oil, 2 hours after gavage): 27.4"
"CNC(=O)Cc1ccc(Oc2nc3ccc(Cl)cc3s2)cc1 [NZ-383, 2-{4-[(6-chloro-1,3-benzothiazol-2-yl)oxy]phenyl}-N-methylacetamide]",800 to 1170,3.9,≥ 100,≥ 100,
"CC(C(=O)N1CCNCC1)c1ccc(Oc2nc3ccc(Cl)cc3s2)cc1 (stereo not shown) [NZ-364, 2-{4-[(6-chloro-1,3-benzothiazol-2-yl)oxy]phenyl}-1-(piperazin-1-yl)propan-1-one]",,1.34,≥ 100,≥ 100,inhibition at 20 µM (Mtb AccD6; read-out: inhibition at 20 uM): 20%
"COc1ccc2nc(Oc3ccc(C(C)C(=O)O)cc3)sc2c1 (stereo not shown) [NZ-334, 2-{4-[(6-methoxy-1,3-benzothiazol-2-yl)oxy]phenyl}propanoic acid]",10000,25,≥ 100,≥ 100,
"CC(C)NC(=O)Nc1ccc(Oc2nc3ccc(C(F)(F)F)cc3s2)cc1 [NZ-379, 3-(propan-2-yl)-1-(4-{[6-(trifluoromethyl)-1,3-benzothiazol-2-yl]oxy}phenyl)urea]",,,≥ 100,≥ 100,"IC50 (Mtb AccD6; 300 μM malonyl-CoA, inhibitor 10 μM to 2000 μM): Not Active; MIC (Mtb strain mc^2-7000; [10]): Not Active"
"CC(C)NC(=O)Nc1ccc(Oc2nc3ccc(Cl)cc3s2)cc1 [NZ-331, 1-{4-[(6-chloro-1,3-benzothiazol-2-yl)oxy]phenyl}-3-(propan-2-yl)urea]",800,0.8,≥ 100,≥ 100,"peak plasma concentration, 30 minutes after gavage [1]: approximately 6 μL/mg; peak plasma concentration, 90 minutes after gavage [1]: 9; Plasma conc. 24 Hrs. after 1st dose ([1]; canola oil): 17.7 (±2.7) μg/ml; Plasma conc. 24 Hrs. after last dose ([1]; canola oil): 27.1 (±13.7) μg/ml; peak plasma concentration (FIG. 6A) ([1]; canola oil, gavage): approximately 23 μL/mg; peak plasma concentration (FIG. 11), 24 hours ([1]; two doses 200 mg/kg 8 hours apart, canola oil, 24 hours after gavage): 34.5; corrected peak plasma concentration (FIG. 6B) ([1]; two doses 200 mg/kg, canola oil, gavage, approx. 24 hours after first dose, 16 hours after second): approximately 138 μL/mg"
"CC(C)ONC(=O)COc1ccc(Oc2cnc3cc(Cl)ccc3n2)cc1 [NZ-326, 2-{4-[(6-chloroquinoxalin-2-yl)oxy]phenoxy}-N-(propan-2-yloxy)acetamide]",2500 to 4400,3,≥ 100,≥ 100,
"CC(C)(C)OC(=O)Nc1ccc(Oc2cnc3cc(Cl)ccc3n2)cc1 [NZ-321, tert-butyl N-{4-[(6-chloroquinoxalin-2-yl)oxy]phenyl}carbamate]",20000,50,≥ 100,≥ 100,
"COC(=O)C(C)c1ccc(Oc2nc3ccc(F)cc3s2)cc1 (stereo not shown) [NZ-328, methyl 2-{4-[(6-fluoro-1,3-benzothiazol-2-yl)oxy]phenyl}propanoate]",10000,12,≥ 100,≥ 100,
"CNC(=O)Cc1ccc(O)cc1Oc1nc2ccc(Cl)cc2s1 [NZ-390, 2-{2-[(6-chloro-1,3-benzothiazol-2-yl)oxy]-4-hydroxyphenyl}-N-methylacetamide]",15400,,≥ 100,≥ 100,MIC (Mtb strain mc^2-7000; [10]): Not Active
"CC(C)NC(=O)C(C)c1ccc(Oc2nc3ccc(Cl)cc3s2)cc1 (stereo not shown) [NZ-327, 2-{4-[(6-chloro-1,3-benzothiazol-2-yl)oxy]phenyl}-N-(propan-2-yl)propanamide]",300,12,≥ 100,≥ 100,
"O=C(COc1ccc(Oc2cnc3cc(Cl)ccc3n2)cc1)NOCC1CC1 [NZ-323, 2-{4-[(6-chloroquinoxalin-2-yl)oxy]phenoxy}-N-(cyclopropylmethoxy)acetamide]",3600,6,≥ 100,≥ 100,
